Test system: KRAS PDC multicell spheroid viability
Test: Anticancer human tumor 825966-067-R-J1-PDC patient-derived colon carcinoma cell line growth inhibition [KRAS2]
Settings: for IC50: curve of first compound; for viability, T/C: stronger effect = lower value
Summary of the method: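 KRAS-mutant tumor cells were grown as spheroids with HUVEC endothelial cells and human MSCs as stroma. Targeted agents were tested alone and with KRAS pathway inhibitors. Doses started at or near clinical Cmax, or 10 microM, descending half-log.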

[1] = second compound 0.1 µM, first compound 0.0316 µM
[2] = second compound 0.1 µM, first compound 0.1 µM
[3] = second compound 0.1 µM, first compound 0.316 µM
[4] = second compound 0.1 µM, first compound 1 µM
[5] = second compound 0.1 µM, first compound 3.16 µM
[6] = second compound 0.316 µM, first compound 0.0316 µM
[7] = second compound 0.316 µM, first compound 0.1 µM
[8] = second compound 0.316 µM, first compound 0.316 µM
[9] = second compound 0.316 µM, first compound 1 µM
[10] = second compound 0.316 µM, first compound 3.16 µM
[11] = second compound 1 µM, first compound 0.0316 µM
[12] = second compound 1 µM, first compound 0.1 µM
[13] = second compound 1 µM, first compound 0.316 µM
[14] = second compound 1 µM, first compound 1 µM
[15] = second compound 1 µM, first compound 3.16 µM
[16] = second compound 3.16 µM, first compound 0.0316 µM
[17] = second compound 3.16 µM, first compound 0.1 µM
[18] = second compound 3.16 µM, first compound 0.316 µM
[19] = second compound 3.16 µM, first compound 1 µM
[20] = second compound 3.16 µM, first compound 3.16 µM
[21] = second compound 10 µM, first compound 0.0316 µM
[22] = second compound 10 µM, first compound 0.1 µM
[23] = second compound 10 µM, first compound 0.316 µM
[24] = second compound 10 µM, first compound 1 µM
[25] = second compound 10 µM, first compound 3.16 µM
[26] = second compound 0.1 µM, first compound 10 µM
[27] = second compound 0.316 µM, first compound 10 µM
[28] = second compound 1 µM, first compound 10 µM
[29] = second compound 3.16 µM, first compound 10 µM
[30] = second compound 10 µM, first compound 10 µM
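Also: spheroids exposed to compounds for 7 days.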
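For viability, T/C in this document: 100% = DMSO vehicle control viability.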

| Structure (SMILES) | IC50 (second compound 0.1 µM) | IC50 (second compound 0.316 µM) | IC50 (second compound 1 µM) | IC50 (second compound 3.16 µM) | IC50 (second compound 10 µM) | viability, T/C [1] | viability, T/C [2] | viability, T/C [3] | viability, T/C [4] | viability, T/C [5] | viability, T/C [6] | viability, T/C [7] | viability, T/C [8] | viability, T/C [9] | viability, T/C [10] | viability, T/C [11] | viability, T/C [12] | viability, T/C [13] | viability, T/C [14] | viability, T/C [15] | further results |
| --- | --- | --- | --- | --- | --- | --- | --- | --- | --- | --- | --- | --- | --- | --- | --- | --- | --- | --- | --- | --- | --- |
| CC1COCCN1c1cc(-c2ccnn2C)c2ccnc(-c3ccn[nH]3)c2n1 (stereo not given) + COc1cc2nc(C)nc(NC(C)c3cc(N)cc(C(F)(F)F)c3)c2cc1OC1CCOC1 | > 3.16 µM | > 3.16 µM | 0.152 µM | 0.0692 µM | 0.0123 µM | 122% | 67.6% | 55% | 55.8% | 40.1% | 112% | 58.3% | 58.1% | 52.7% | 38.8% | 80.4% | 61.5% | 28.3% | 34.8% | 27.1% | viability, T/C (second compound 0.1 µM, first compound 0.01 µM): 106%; viability, T/C (second compound 0.316 µM, first compound 0.01 µM): 112%; viability, T/C (second compound 1 µM, first compound 0.01 µM): 74.6%; viability, T/C (second compound 3.16 µM, first compound 0.01 µM): 130%; viability, T/C [16]: 97.9%; viability, T/C [17]: 27.4%; viability, T/C [18]: 27.5%; viability, T/C [19]: 23.9%; viability, T/C [20]: 19.8%; viability, T/C (second compound 10 µM, first compound 0.01 µM): 56.6%; viability, T/C [21]: 21.1%; viability, T/C [22]: 7.19%; viability, T/C [23]: 3.93%; viability, T/C [24]: 2.81%; viability, T/C [25]: 0.97% |
| CC1OCC2(CCN(c3cnc(Sc4ccnc(N)c4Cl)c(N)n3)CC2)C1N (stereo not given) + COc1cc2nc(C)nc(NC(C)c3cc(N)cc(C(F)(F)F)c3)c2cc1OC1CCOC1 | > 10 µM | 6.76 µM | 7.2 µM | 5.48 µM | 0.557 µM | 88.2% | 83.7% | 74% | 75.6% | 100% | 87.4% | 89% | 88% | 95.9% | 95.5% | 89% | 88% | 81.7% | 91.3% | 89.4% | viability, T/C [26]: 58%; viability, T/C [27]: 28.8%; viability, T/C [28]: 34.7%; viability, T/C [16]: 93.9%; viability, T/C [17]: 104%; viability, T/C [18]: 101%; viability, T/C [19]: 98.5%; viability, T/C [20]: 91.6%; viability, T/C [29]: 4.35%; viability, T/C [21]: 76.5%; viability, T/C [22]: 68.7%; viability, T/C [23]: 63.1%; viability, T/C [24]: 37.4%; viability, T/C [25]: 8.46%; viability, T/C [30]: 0.53% |
| Cn1nccc1Nc1nccc(-c2cc3c(s2)C(C)(C)N(CCN2CCOCC2)C3=O)n1 + COc1cc2nc(C)nc(NC(C)c3cc(N)cc(C(F)(F)F)c3)c2cc1OC1CCOC1 | > 10 µM | > 10 µM | > 10 µM | 10 µM | 0.0952 µM | 105% | 120% | 146% | 102% | 83.1% | 110% | 112% | 126% | 81% | 83.8% | 114% | 117% | 121% | 79.3% | 80.9% | viability, T/C [26]: 72.2%; viability, T/C [27]: 67.7%; viability, T/C [28]: 65.7%; viability, T/C [16]: 103%; viability, T/C [17]: 130%; viability, T/C [18]: 85.7%; viability, T/C [19]: 49.7%; viability, T/C [20]: 62.5%; viability, T/C [29]: 45.6%; viability, T/C [21]: 70.3%; viability, T/C [22]: 49.1%; viability, T/C [23]: 2.05%; viability, T/C [24]: 0.83%; viability, T/C [25]: 0.32%; viability, T/C [30]: 0.87% |
